Results: US9345791B2, “Ligands for targeting of S1P receptors for in vivo imaging and treatment of diseases” (Westfaelische Wilhelms-Universitaet Muenster, priority 2011, dated 2016)

What was measured:
[1] = system: Lymphocytes (T- and B-cells); experiment: Immunosuppressive activity in vivo: peripheral blood lymphopenia, flow cytometry; design: species or system mice; conditions: for B cells / CD4+ / CD8+ / WBC: intraperitoneally at 1.25 microgramm/kg body weight, blood drawn 24 hours later; for WBC: peripheral blood; for immunosuppressive action / effectiveness (in words): summary of table 1 in text
Method: The compounds of the invention were tested for immunosuppressive biological activity in vivo based on the known ability of S1P analogues to induce peripheral blood lymphopenia due to lymphocyte trapping in secondary lymph organs. The immunosuppressive activity of compound 21 (555558) and of compound 27 (555890) was compared with the corresponding activity a non-fluorinated analogue compound 7 (5551091), and non-ω (or close to ω)-fluorinated compounds (compounds 8 (555535) and 12 (555517)) as well as with FTY720 as a standard. The compounds were injected intraperitoneally at 1.25 microgramm/kg body weight in a total volume of 200 microliter. 24 hours later, blood was drawn from the retroorbital plexus in 17.8 mM EDTA as an anti-coagulant. Lymphocytes (T- and B-cells) were analyzed by flow cytometry as following: After lysis of red blood cells by BD Pharm Lyse (Becton Dickinson) in 50 microliter blood, cells were washed, resuspended in 100 microliter FACS buffer (1% BSA in PBS), and antibodies to CD4, CD8 and B220 (Becton Dickinson) were added (1 microliter antibody per sample each) for 30 minutes at room temperature. After 3 washes, cells were then analyzed by flow cytometry in a Gallios Beckman Coulter flow cytometer.

[2] = system: G-protein-coupled cell surface receptors (S1PR) designated S1P1-5; conditions: cited from earlier work

melting point	Structure (SMILES)	B cells ([1]; cell count)	CD4+ ([1]; cell count)	CD8+ ([1]; cell count)	B cells ([1]; percentage)	CD4+ ([1]; percentage)	CD8+ ([1]; percentage)	WBC [1]	immunosuppressive action / effectiveness (in words) [1]	Kd [2]
74 °C	CCCCCCCCCCCCC/C=C(/F)CC(N)(CO)CO [SSS864, (E)-2-Amino-2-(2-fluorohexadec-2-en-1-yl)propane-1,3-diol]	3.41 10^6/mL	0.28 10^6/mL	0.37 10^6/mL	64.70%	5.40%	7.00%	5.27 10^6/mL	–	–
–	CCCCCCCCCCCCCCCCC(N)(CO)CO [SSS1091, 2-Amino-2-hexadecylpropane-1,3-diol]	1.27 0.26 10^6/mL	0.09 0.02 10^6/mL	0.08 0.01 10^6/mL	–	–	–	4.14 0.60 10^6/mL	–	–
96 to 98 °C	CCCCCCCCCCCCCCC(F)CC(N)(CO)CO (stereo not shown) [SSS517, 2-Amino-2-(2-fluorohexadecyl)propan-1,3-diol]	4.81 10^6/mL	0.54 10^6/mL	0.60 10^6/mL	42.40%	4.80%	5.30%	11.35 10^6/mL	very moderate immunosuppressive action	–
–	CCC/C=C(\F)CC(N)COP(=O)(O)O (stereo not shown) [Compound B1087]	2.49 10^6/mL	0.42 10^6/mL	0.59 10^6/mL	35.20%	5.90%	8.40%	7.06 10^6/mL	–	–
108 to 110 °C	CCCCCCCCCCCCCCC(F)CC(N)(CO)CO.Cl (stereo not shown) [SSS564, 2-Amino-2-(2-fluorohexadecyl)propan-1,3-diol hydrochloride]	5.52 10^6/mL	0.65 10^6/mL	0.98 10^6/mL	42.20%	5.00%	7.50%	13.07 10^6/mL	–	–
–	CCCCCCCCCCCCC/C=C/[C@@H](O)[C@@H](N)COP(=O)(O)O [Compound S1P, Sphingosine-1-phosphate]	–	–	–	–	–	–	–	–	8 to 20 nM
108 °C	NC(CO)(CO)CCc1ccc(CCCCCCF)cc1 [SSS 944, 2-Amino-2-(4-(6-fluorohexyl)phenethyl)propane-1,3-diol]	–	–	–	–	–	–	–	–	–
–	CCCCCCCCc1ccc(CCC(N)(CO)CO)cc1 [FTY 720, 2-Amino-2-(4-octylphenethyl)propane-1,3-diol, reference compound]	0.61 10^6/mL	0.02 10^6/mL	0.04 10^6/mL	20.08%	1.10%	0.30%	3.69 10^6/mL	–	–
85 °C	NC(CO)(CO)CCCCCCCCCCCCCCCF [SSS890, 2-Amino-2-(15-fluoropentadecyl)propane-1,3-diol]	–	–	–	–	–	–	–	–	–
57 °C	CCCCCCCCCCCCC/C=C/CC(N)(CO)CO [SSS822, (E)-2-Amino-2-(hexadec-2-en-1-yl)propane-1,3-diol]	1.17 0.33 10^6/mL	0.10 0.01 10^6/mL	0.12 0.05 10^6/mL	–	–	–	5.02 1.04 10^6/mL	–	–
–	CCCCCCCCCCCCCCC(N)(CO)CO [SSS943, 2-Amino-2-tetradecylpropane-1,3-diol]	0.60 10^6/mL	0.04 10^6/mL	0.04 10^6/mL	35.21%	2.25%	2.35%	1.73 10^6/mL	–	–
72 to 75 °C	CN(C)c1cccc2c(S(=O)(=O)NCCCCCCCCCCCCCCCCC(N)(CO)CO)cccc12 [SSS846, N-(17-Amino-18-hydroxy-17-(hydroxymethyl)octadecyl)-5-(dimethylamino)naphthalene-1-sulfonamide]	5.32 10^6/mL	0.98 10^6/mL	0.52 10^6/mL	57.30%	10.60%	5.60%	9.28 10^6/mL	–	–
74 to 76 °C	CCCCCCCCc1ccc(C(O)CC(N)(CO)CO)cc1 (stereo not shown) [SSS 563, 3-Amino-3-(hydroxymethyl)-1-(4-octylphenyl)butane-1,4-diol]	–	–	–	–	–	–	–	–	–
52 °C	CCCCCCCCCCCCCCCCC(N)(CO)CF (stereo not shown) [SSS535, 2-Amino-2-(fluoromethyl)octadecan-1-ol]	3.54 10^6/mL	0.42 10^6/mL	0.39 10^6/mL	50.20%	6.00%	5.50%	7.05 10^6/mL	diminishes effectiveness	–
–	CCC/C=C/CC(N)COP(=O)(O)O (stereo not shown) [Compound B1088]	2.76 10^6/mL	0.34 10^6/mL	0.49 10^6/mL	38.60%	4.80%	6.90%	7.15 10^6/mL	–	–
68 to 70 °C	CCCCCCCCCCCCC/C=C(\F)CC(N)(CO)CO [SSS862, (Z)-2-Amino-2-(2-fluorohexadec-2-en-1-yl)propane-1,3-diol]	3.23 10^6/mL	0.27 10^6/mL	0.41 10^6/mL	60.90%	5.00%	7.80%	5.31 10^6/mL	–	–
77 °C	NC(CO)(CO)CCCCCCCCCCCCCCCCF [SSS558, 2-Amino-2-(16-fluorohexadecyl)propan-1,3-diol]	1.52 0.04 10^6/mL	0.15 0.08 10^6/mL	0.13 0.04 10^6/mL	–	–	–	3.74 0.70 10^6/mL	–	–
–	CCC/C=C/CC(N)CO (stereo not shown) [SSS182]	2.91 10^6/mL	0.43 10^6/mL	0.48 10^6/mL	42.20%	6.30%	7.00%	6.90 10^6/mL	–	–
